Converted amounts (≈) assume the structure as drawn.
Columns and labels:
Format in all cases: functional
Bacteroides stercoris [1] = assay: Antibacterial activity against Bacteroides stercoris isolate by agar dilution method in presence of clavulanate
Bacteroides sp. [2] = assay: Antibacterial activity against Bacteroides spp. isolate by agar dilution method in presence of clavulanate
Bacteroides uniformis [3] = assay: Antibacterial activity against Bacteroides uniformis assessed as percent resistant isolates by agar dilution method in presence of clavulanate
[4] = tested on: Parabacteroides distasonis; assay: Antibacterial activity against Bacteroides distasonis assessed as percent resistant isolates by agar dilution method in presence of clavulanate
[5] = tested on: Bacteroides thetaiotaomicron; assay: Antibacterial activity against Bacteroides thetaiotaomicron isolate by agar dilution method in presence of clavulanate
Bacteroides caccae [6] = assay: Antibacterial activity against Bacteroides caccae isolate by agar dilution method in presence of clavulanate
Bacteroides ovatus [7] = assay: Antibacterial activity against Bacteroides ovatus assessed as percent resistant isolates by agar dilution method in presence of clavulanate
[8] = tested on: Parabacteroides distasonis; assay: Antibacterial activity against Bacteroides distasonis isolate by agar dilution method in presence of clavulanate
Bacteroides fragilis [9] = assay: Antibacterial activity against Bacteroides fragilis assessed as percent resistant isolates by agar dilution method in presence of clavulanate
Bacteroides ovatus [10] = assay: Antibacterial activity against Bacteroides ovatus isolate by agar dilution method in presence of clavulanate
Bacteroides eggerthii [11] = assay: Antibacterial activity against Bacteroides eggerthii isolate by agar dilution method in presence of clavulanate
Bacteroides fragilis [12] = assay: Antibacterial activity against Bacteroides fragilis isolate by agar dilution method in presence of clavulanate
[13] = tested on: Bacteroides thetaiotaomicron; assay: Antibacterial activity against Bacteroides thetaiotaomicron assessed as percent resistant isolates by agar dilution me in presence of clavulanate thod
Bacteroides uniformis [14] = assay: Antibacterial activity against Bacteroides uniformis isolate by agar dilution method in presence of clavulanate
Bacteroides sp. [15] = assay: Antibacterial activity against Bacteroides spp. assessed as percent resistant isolates by agar dilution method in presence of clavulanate; details: pooled result: one value given for 4 cell lines, strains, targets or settings
Parabacteroides merdae [16] = assay: Antibacterial activity against Bacteroides merdae isolate by agar dilution method in presence of clavulanate
Bacteroides caccae [17] = assay: Antibacterial activity against Bacteroides caccae assessed as percent resistant isolates by agar dilution method in presence of clavulanate
Phocaeicola vulgatus [18] = assay: Antibacterial activity against Bacteroides vulgatus isolate by agar dilution method in presence of clavulanate
Phocaeicola vulgatus [19] = assay: Antibacterial activity against Bacteroides vulgatus assessed as percent resistant isolates by agar dilution method in presence of clavulanate
Bacteroides sp. [20] = assay: Antibacterial activity against Bacteroides spp. isolate by agar dilution method
[21] = tested on: Parabacteroides distasonis; assay: Antibacterial activity against Bacteroides distasonis assessed as percent resistant isolates by agar dilution method
Phocaeicola vulgatus [22] = assay: Antibacterial activity against Bacteroides vulgatus assessed as percent resistant isolates by agar dilution method
Bacteroides ovatus [23] = assay: Antibacterial activity against Bacteroides ovatus assessed as percent resistant isolates by agar dilution method
Bacteroides uniformis [24] = assay: Antibacterial activity against Bacteroides uniformis assessed as percent resistant isolates by agar dilution method
[25] = tested on: Bacteroides thetaiotaomicron; assay: Antibacterial activity against Bacteroides thetaiotaomicron isolate by agar dilution method
Bacteroides caccae [26] = assay: Antibacterial activity against Bacteroides caccae assessed as percent resistant isolates by agar dilution method
Bacteroides caccae [27] = assay: Antibacterial activity against Bacteroides caccae isolate by agar dilution method
Bacteroides fragilis [28] = assay: Antibacterial activity against Bacteroides fragilis assessed as percent resistant isolates by agar dilution method
Bacteroides uniformis [29] = assay: Antibacterial activity against Bacteroides uniformis isolate by agar dilution method
Phocaeicola vulgatus [30] = assay: Antibacterial activity against Bacteroides vulgatus isolate by agar dilution method
Bacteroides ovatus [31] = assay: Antibacterial activity against Bacteroides ovatus isolate by agar dilution method
Bacteroides fragilis [32] = assay: Antibacterial activity against Bacteroides fragilis assessed as percent resistant isolates
Bacteroides eggerthii [33] = assay: Antibacterial activity against Bacteroides eggerthii isolate by agar dilution method
Phocaeicola vulgatus [34] = assay: Antibacterial activity against Bacteroides vulgatus assessed as percent resistant isolates
[35] = tested on: Bacteroides thetaiotaomicron; assay: Antibacterial activity against Bacteroides thetaiotaomicron assessed as percent resistant isolates by agar dilution method
Bacteroides stercoris [36] = assay: Antibacterial activity against Bacteroides stercoris assessed as percent resistant isolates by agar dilution method; details: pooled result: one value given for 4 cell lines, strains, targets or settings
Bacteroides stercoris [37] = assay: Antibacterial activity against Bacteroides stercoris isolate by agar dilution method
Parabacteroides merdae [38] = assay: Antibacterial activity against Bacteroides merdae isolate by agar dilution method
[39] = tested on: Parabacteroides distasonis; assay: Antibacterial activity against Bacteroides distasonis isolate by agar dilution method

`CC1(C)S[C@@H]2[C@H](NC(=O)[C@H](N)c3ccc(O)cc3)C(=O)N2[C@H]1C(=O)O` [AMOXICILLIN] showed an MIC50 (Bacteroides stercoris [1]) of 2 µg/mL, an MIC90 (Bacteroides stercoris [1]) of 16 µg/mL and an MIC50 (Bacteroides sp. [2]) of 2 µg/mL. The MIC90 (Bacteroides sp. [2]) was 16 µg/mL, the Activity (Bacteroides uniformis [3]) was 12.3% and the Activity [4] was 16.3%. The MIC50 [5] was 2 µg/mL, the MIC90 [5] was 16 µg/mL and the MIC50 (Bacteroides caccae [6]) was 2 µg/mL. For the same compound, the MIC90 (Bacteroides caccae [6]) was 16 µg/mL, the Activity (Bacteroides ovatus [7]) was 17.1% and the MIC50 [8] was 4 µg/mL. The MIC90 [8] was 16 µg/mL, the Activity (Bacteroides fragilis [9]) was 6.2% and the MIC50 (Bacteroides ovatus [10]) was 1 µg/mL. The MIC90 (Bacteroides ovatus [10]) was 16 µg/mL, the MIC50 (Bacteroides eggerthii [11]) was 2 µg/mL and the MIC90 (Bacteroides eggerthii [11]) was 16 µg/mL. For the same compound, the MIC50 (Bacteroides fragilis [12]) was 1 µg/mL, the MIC90 (Bacteroides fragilis [12]) was 8 µg/mL and the Activity [13] was 4.9%. The MIC50 (Bacteroides uniformis [14]) was 1 µg/mL, the MIC90 (Bacteroides uniformis [14]) was 16 µg/mL and the Activity (Bacteroides sp. [15]) was 19.6%. The MIC50 (Parabacteroides merdae [16]) was 2 µg/mL, the MIC90 (Parabacteroides merdae [16]) was 16 µg/mL and the Activity (Bacteroides caccae [17]) was 20%. The MIC50 (Phocaeicola vulgatus [18]) was 2 µg/mL, the MIC90 (Phocaeicola vulgatus [18]) was 16 µg/mL and the Activity (Phocaeicola vulgatus [19]) was 21.3%.

With `COc1c(N2C[C@@H]3CCCN[C@@H]3C2)c(F)cc2c(=O)c(C(=O)O)cn(C3CC3)c12` [MOXIFLOXACIN] the MIC50 (Bacteroides sp. [20]) was 2 µg/mL (≈ 4.98 µM), the MIC90 (Bacteroides sp. [20]) was 16 µg/mL (≈ 39.9 µM) and the Activity [21] was 18.6%. For the same compound, the Activity (Phocaeicola vulgatus [22]) was 17%, the Activity (Bacteroides ovatus [23]) was 24.4% and the Activity (Bacteroides uniformis [24]) was 24.5%. The MIC50 [25] was 2 µg/mL (≈ 4.98 µM), the MIC90 [25] was 16 µg/mL (≈ 39.9 µM) and the Activity (Bacteroides caccae [26]) was 22.2%. For the same compound, the MIC50 (Bacteroides caccae [27]) was 2 µg/mL (≈ 4.98 µM), the MIC90 (Bacteroides caccae [27]) was 32 µg/mL (≈ 79.7 µM) and the Activity (Bacteroides fragilis [28]) was 9.7%. For the same compound, the MIC50 (Bacteroides uniformis [29]) was 2 µg/mL (≈ 4.98 µM), the MIC90 (Bacteroides uniformis [29]) was 32 µg/mL (≈ 79.7 µM) and the MIC50 (Phocaeicola vulgatus [30]) was 2 µg/mL (≈ 4.98 µM). For the same compound, the MIC90 (Phocaeicola vulgatus [30]) was 16 µg/mL (≈ 39.9 µM), the MIC50 (Bacteroides ovatus [31]) was 2 µg/mL (≈ 4.98 µM) and the MIC90 (Bacteroides ovatus [31]) was 32 µg/mL (≈ 79.7 µM). The Activity (Bacteroides fragilis [32]) was 27.3%, the MIC50 (Bacteroides eggerthii [33]) was 2 µg/mL (≈ 4.98 µM) and the MIC90 (Bacteroides eggerthii [33]) was 16 µg/mL (≈ 39.9 µM). It also gave an Activity (Phocaeicola vulgatus [34]) of 54.7%, an Activity [35] of 17% and an Activity (Bacteroides stercoris [36]) of 28.3%. The MIC50 (Bacteroides stercoris [37]) was 2 µg/mL (≈ 4.98 µM), the MIC90 (Bacteroides stercoris [37]) was 16 µg/mL (≈ 39.9 µM) and the MIC50 (Parabacteroides merdae [38]) was 2 µg/mL (≈ 4.98 µM). For the same compound, the MIC90 (Parabacteroides merdae [38]) was 16 µg/mL (≈ 39.9 µM), the MIC50 [39] was 1 µg/mL (≈ 2.49 µM) and the MIC90 [39] was 16 µg/mL (≈ 39.9 µM).

— ChEMBL document CHEMBL1275453, “Resistance trends of the Bacteroides fragilis group over a 10-year period, 1997 to 2006, in Madrid, Spain” (2008)
